# Data taken from paper PMC9080233, “Synthesis and biological evaluation of novel quinolone derivatives dual targeting histone deacetylase and tubulin polymerization as antiproliferative agents” (RSC Advances, 2018).
# Columns and labels:
# [1] = test system: prostate cancer cells PC-3; assay: Antiproliferative activity, CCK-8 assay, PC-3; assay type: cell-based; conditions: Homo sapiens; CCK-8, 72 hours; mean ± SD
# [2] = target: T1, human recombinant HDAC2 (Homo sapiens, UniProt Q92769); assay: HDAC activity assay (fluorogenic HDAC assay kit), HDAC2; assay type: biochemical; conditions: human recombinant HDAC2, 37 °C, 30 min
# T1 construct: purchased BPS Bioscience, CA
# T1 sequence (Q92769 whole entry): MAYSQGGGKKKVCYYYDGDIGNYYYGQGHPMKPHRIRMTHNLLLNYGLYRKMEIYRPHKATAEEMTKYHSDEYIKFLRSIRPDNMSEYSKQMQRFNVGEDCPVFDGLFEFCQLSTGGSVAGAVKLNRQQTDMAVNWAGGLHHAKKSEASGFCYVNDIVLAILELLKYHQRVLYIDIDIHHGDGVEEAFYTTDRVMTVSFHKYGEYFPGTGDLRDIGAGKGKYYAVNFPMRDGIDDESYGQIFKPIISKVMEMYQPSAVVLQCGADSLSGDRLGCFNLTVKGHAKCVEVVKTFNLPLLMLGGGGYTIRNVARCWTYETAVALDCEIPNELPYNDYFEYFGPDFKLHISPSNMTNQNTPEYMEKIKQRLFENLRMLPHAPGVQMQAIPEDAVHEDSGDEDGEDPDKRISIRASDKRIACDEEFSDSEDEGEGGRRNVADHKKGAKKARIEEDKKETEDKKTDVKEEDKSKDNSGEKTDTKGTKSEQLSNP
# [3] = test system: breast cancer cells MCF-7; assay: Antiproliferative activity, CCK-8 assay, MCF-7; assay type: cell-based; conditions: Homo sapiens, MCF7; CCK-8, 72 hours; mean ± SD
# [4] = target: T2, human recombinant HDAC1 (Homo sapiens, UniProt Q13547); assay: HDAC activity assay (fluorogenic HDAC assay kit), HDAC1; assay type: biochemical; conditions: human recombinant HDAC1, 37 °C, 30 min
# T2 construct: purchased BPS Bioscience, CA
# T2 sequence (Q13547 whole entry): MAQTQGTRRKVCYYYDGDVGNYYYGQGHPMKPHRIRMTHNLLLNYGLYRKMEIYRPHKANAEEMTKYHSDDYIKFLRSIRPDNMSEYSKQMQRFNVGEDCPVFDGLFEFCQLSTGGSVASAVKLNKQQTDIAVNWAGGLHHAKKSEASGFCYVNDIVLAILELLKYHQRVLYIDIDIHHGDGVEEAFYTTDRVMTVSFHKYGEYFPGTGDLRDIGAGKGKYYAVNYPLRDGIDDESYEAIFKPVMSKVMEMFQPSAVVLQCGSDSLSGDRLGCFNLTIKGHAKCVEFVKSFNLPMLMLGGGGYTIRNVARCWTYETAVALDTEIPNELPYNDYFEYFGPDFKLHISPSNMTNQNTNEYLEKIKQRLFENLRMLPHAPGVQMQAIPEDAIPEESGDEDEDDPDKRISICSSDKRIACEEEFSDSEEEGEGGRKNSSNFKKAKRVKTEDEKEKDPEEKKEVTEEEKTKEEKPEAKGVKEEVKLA
# [5] = target: T3, human recombinant HDAC6 (Homo sapiens, UniProt Q9UBN7); assay: HDAC activity assay (fluorogenic HDAC assay kit), HDAC6; assay type: biochemical; conditions: for IC50: human recombinant HDAC6, 37 °C, 30 min; for Selectivity index HDAC6/1: ratio of IC50 HDAC1 to IC50 HDAC6; for Selectivity index HDAC6/2: ratio of IC50 HDAC2 to IC50 HDAC6;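 for all read-outs here: underlying HDAC activity read as fluorescence, excitation 350 nm and emission 440 nm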
# T3 construct: purchased BPS Bioscience, CA
# T3 sequence (Q9UBN7 1-1215): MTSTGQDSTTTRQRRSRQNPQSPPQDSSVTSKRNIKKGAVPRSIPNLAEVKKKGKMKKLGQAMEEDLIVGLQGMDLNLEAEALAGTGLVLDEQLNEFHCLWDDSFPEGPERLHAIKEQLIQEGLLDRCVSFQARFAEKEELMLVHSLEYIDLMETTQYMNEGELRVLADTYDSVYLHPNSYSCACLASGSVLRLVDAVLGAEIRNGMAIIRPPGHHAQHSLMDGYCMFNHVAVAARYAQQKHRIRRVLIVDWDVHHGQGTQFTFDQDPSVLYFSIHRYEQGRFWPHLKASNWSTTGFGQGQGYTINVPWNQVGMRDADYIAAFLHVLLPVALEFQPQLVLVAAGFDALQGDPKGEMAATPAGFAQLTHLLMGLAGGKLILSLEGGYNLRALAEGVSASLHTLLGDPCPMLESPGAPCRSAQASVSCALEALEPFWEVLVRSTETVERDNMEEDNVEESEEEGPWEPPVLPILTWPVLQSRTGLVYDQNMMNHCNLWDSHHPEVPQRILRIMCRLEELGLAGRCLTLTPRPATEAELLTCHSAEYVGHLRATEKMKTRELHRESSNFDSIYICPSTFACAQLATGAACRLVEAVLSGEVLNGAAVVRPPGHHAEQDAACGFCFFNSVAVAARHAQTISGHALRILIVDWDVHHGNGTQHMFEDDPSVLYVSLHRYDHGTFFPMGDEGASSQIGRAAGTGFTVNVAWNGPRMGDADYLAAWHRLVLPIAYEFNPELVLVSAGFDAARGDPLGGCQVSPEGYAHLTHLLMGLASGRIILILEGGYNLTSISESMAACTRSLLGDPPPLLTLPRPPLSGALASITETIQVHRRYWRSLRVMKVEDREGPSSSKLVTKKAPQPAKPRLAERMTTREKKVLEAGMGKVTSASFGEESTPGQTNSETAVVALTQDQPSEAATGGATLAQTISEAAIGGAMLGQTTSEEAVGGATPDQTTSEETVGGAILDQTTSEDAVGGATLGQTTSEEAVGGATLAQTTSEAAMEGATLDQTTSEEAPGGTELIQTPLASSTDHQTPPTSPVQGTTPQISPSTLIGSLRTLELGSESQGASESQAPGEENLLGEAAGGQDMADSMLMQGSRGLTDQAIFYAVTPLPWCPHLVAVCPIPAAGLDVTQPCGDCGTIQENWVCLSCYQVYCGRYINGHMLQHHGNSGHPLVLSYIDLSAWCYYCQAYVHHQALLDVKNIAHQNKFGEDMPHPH
# [6] = test system: human lung adenocarcinoma cells A549; assay: Antiproliferative activity, CCK-8 assay, A549; assay type: cell-based; conditions: CCK-8, 72 hours, mean ± SD
# [7] = test system: human cervical carcinoma cells HeLa; assay: Antiproliferative activity, CCK-8 assay, HeLa; assay type: cell-based; conditions: CCK-8, 72 hours, mean ± SD, read-out: IC50 HeLa
# Procedure: (§1) Antitumor activities in vitro of synthetic compounds were measured using CCK-8 Assay Kit (BPS Bioscience, CA) according to the manufacturer's protocol. Cells were plated into 96-well plates with appropriate test compounds for 72 hours. Control cells were treated with serum free medium. Then CCK-8 solution was added to each well to determine cell viability. The IC50 values were calculated according to the dose-dependent curves (Origin software). IC50 values were determined using nonlinear regression analysis.
# [8] = test system: tubulin; assay: Tubulin polymerization assay; assay type: biochemical; conditions: in words
# Sequence of tubulin (P02550 whole entry): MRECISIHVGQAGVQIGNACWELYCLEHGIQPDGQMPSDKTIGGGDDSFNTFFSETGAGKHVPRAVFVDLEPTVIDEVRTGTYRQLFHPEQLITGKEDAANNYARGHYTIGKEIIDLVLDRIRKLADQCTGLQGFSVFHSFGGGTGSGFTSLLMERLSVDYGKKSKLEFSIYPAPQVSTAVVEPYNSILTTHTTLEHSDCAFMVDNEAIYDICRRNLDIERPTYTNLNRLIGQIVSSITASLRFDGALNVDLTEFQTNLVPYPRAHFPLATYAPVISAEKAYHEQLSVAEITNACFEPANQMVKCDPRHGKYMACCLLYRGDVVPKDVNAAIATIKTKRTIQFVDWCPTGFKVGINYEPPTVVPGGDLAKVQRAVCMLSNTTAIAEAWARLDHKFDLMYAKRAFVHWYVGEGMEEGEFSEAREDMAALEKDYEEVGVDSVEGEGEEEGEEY
# Sequence of tubulin (P02554 whole entry, further chain): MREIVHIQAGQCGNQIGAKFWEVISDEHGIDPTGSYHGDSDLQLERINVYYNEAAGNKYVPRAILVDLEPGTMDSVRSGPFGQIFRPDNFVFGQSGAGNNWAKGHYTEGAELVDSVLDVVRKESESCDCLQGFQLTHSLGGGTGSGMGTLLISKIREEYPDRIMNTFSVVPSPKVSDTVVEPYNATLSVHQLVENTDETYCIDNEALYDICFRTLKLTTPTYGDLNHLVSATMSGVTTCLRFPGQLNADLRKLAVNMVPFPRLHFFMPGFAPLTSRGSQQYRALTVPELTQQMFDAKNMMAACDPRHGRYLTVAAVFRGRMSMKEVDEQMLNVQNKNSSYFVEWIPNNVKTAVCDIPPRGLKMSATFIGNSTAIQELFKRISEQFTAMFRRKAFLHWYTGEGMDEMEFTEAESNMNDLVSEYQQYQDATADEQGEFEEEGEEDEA
# [9] = test system: healthy MCF-10A cells; assay: Toxicity to healthy cells, CCK-8 assay, MCF-10A; assay type: cell-based; conditions: Homo sapiens, MCF-10A; healthy cells, CCK-8, 72 hours; >100 = not determinable up to highest concentrations tested
# [10] = test system: liver cancer cells HepG2; assay: Antiproliferative activity, CCK-8 assay, HepG2; assay type: cell-based; conditions: Homo sapiens, CCK-8, 72 hours, mean ± SD
# [11] = test system: five cancer cells, A549, HepG2, MCF-7, PC-3, HeLa; assay: Antiproliferative activity, CCK-8 assay, statements on all five cancer cell lines; assay type: cell-based, human
# Procedure: as §1
"IC50 ([11]; Homo sapiens, A549, HepG2, MCF-7, PC-3, HeLa, read-out: IC50 proliferation of the five cancer cells)",SMILES,IC50 [1],melting point,IC50 [2],IC50 [3],IC50 [4],IC50 [5],Selectivity index HDAC6/1 [5],Selectivity index HDAC6/2 [5],IC50 [6],IC50 [7],tubulin polymerization inhibition compared with reference compound [8],IC50 [9],IC50 [10],"fold more potent than levofloxacin, antiproliferative activity ([11]; against all cancer cells)"
–,"C[C@H]1COc2c(N3CCN(C)CC3)c(F)cc3c(=O)c(C(=O)NCc4cn(CCCCCCC(=O)O)nn4)cn1c23 [Compound 7b, (S)-7-(4-((9-fluoro-3-methyl-10-(4-methylpiperazin-1-yl)-7-oxo-3,7-dihydro-2H-[1,4]oxazino[2,3,4-ij]quinoline-6-carboxamido)methyl)-1H-1,2,3-triazol-1-yl)heptanoic acid]",11.1 ± 1.16 µM,187 to 190 °C,4.6 ± 0.62 µM,7.8 ± 0.71 µM,2.1 ± 0.37 µM,1.1 ± 0.28 µM,1.9,4.2,9.3 ± 0.82 µM,8.4 ± 0.62 µM,equipotent to reference compound CA-4,> 100 µM,9.9 ± 0.62 µM,–
–,"C[C@H]1COc2c(N3CCN(C)CC3)c(F)cc3c(=O)c(C(=O)OCc4cn(CCCCCCC(=O)NO)nn4)cn1c23 [Compound 8b, (S)-(1-(7-(hydroxyamino)-7-oxoheptyl)-1H-1,2,3-triazol-4-yl)methyl-9-fluoro-3-methyl-10-(4-methylpiperazin-1-yl)-7-oxo-3,7-dihydro-2H-[1,4]oxazino[2,3,4-ij]quinoline-6-carboxylate]",8.5 ± 0.79 µM,–,0.082 ± 0.015 µM,0.8 ± 0.15 µM,0.067 ± 0.019 µM,0.03 ± 0.019 µM,2.2,2.7,3.5 ± 0.17 µM,2.7 ± 0.17 µM,equipotent to reference compound CA-4,> 100 µM,5.2 ± 0.56 µM,–
–,"C[C@H]1COc2c(N3CCN(C)CC3)c(F)cc3c(=O)c(C(=O)NCc4cn(CCCCCCC(=O)NO)nn4)cn1c23 [Compound 9b, (S)-9-Fluoro-N-((1-(7-(hydroxyamino)-7-oxoheptyl)-1H-1,2,3-triazol-4-yl)methyl)-3-methyl-10-(4methylpiperazin-1-yl)-7-oxo-3,7-dihydro-2H-[1,4]oxazino[2,3,4-ij]quinoline-6-carboxamide]",4.9 ± 0.43 µM,–,0.041 ± 0.014 µM,0.3 ± 0.14 µM,0.029 ± 0.018 µM,0.021 ± 0.007 µM,1.4,2.0,2.1 ± 0.26 µM,1.1 ± 0.15 µM,equipotent to reference compound CA-4,> 100 µM,2.3 ± 0.31 µM,over 20 fold
> 70 µM,"C[C@H]1COc2c(N3CCN(C)CC3)c(F)cc3c(=O)c(C(=O)O)cn1c23 [Levofloxacin, levofloxacin, reference compound]",> 100 µM,–,–,64.2 ± 5.67 µM,–,–,–,–,76.3 ± 6.51 µM,71.1 ± 4.98 µM,–,> 100 µM,> 100 µM,–
